Values of other authors as cited in paper PMC6311893, “Computational prediction of plasma protein binding of cyclic peptides from small molecule experimental data using sparse modeling techniques” (BMC Bioinformatics, 2018).
Where two headings read alike, the source gives them in different places.

Tested on: plasma protein
Conditions: cited from earlier work
[1] = fraction bound to plasma protein, small molecule dataset, sheet 1-SM, ref Ingle et al.
[2] = fraction bound to plasma protein, small molecule dataset, sheet 1-SM, Set Dtr, ref Ingle et al.
[3] = fraction bound to plasma protein, small molecule dataset, sheet 1-SM (Set Dte = test, Dtr = training), ref Ingle et al.

O=C(O)c1ccc(O)c(O)c1 [protocatechuic acid]
PPB (fb) [1]: 0.21

CCOc1c(C)nc2ccccc2c1C(=O)NC1C(=O)N2C1SC(C)(C)C2C(=O)O (stereo not shown) [penicillin79]
PPB (fb) [1]: 0.74

O=C([O-])[O-].[Li+].[Li+] [Lithium Carbonate]
PPB (fb) (plasma): 0

COC1=C(OC)C(=O)C(CCCCCCCCCCO)=C(C)C1=O [idebenone]
PPB (fb) [1]: 0.9

CC(C)Cc1ccc(C(C)C(=O)NCCOCCO)cc1 (stereo not shown) [JMC_08]
PPB (fb) [1]: 0.83

N[C@@H](Cc1ccc(O)c(O)c1)C(=O)O [Levodopa]
PPB (fb) [2]: 0.12

O=C(O)CCCC[C@@H]1SC[C@@H]2NC(=O)N[C@@H]21 [biotin]
PPB (fb) [3]: 0.2

CN(C)CCC=C1c2ccccc2C=Cc2ccccc21 [cyclobenzaprine]
PPB (fb) [3]: 0.93

O=C(OCCN1CCCCCC1)C(c1ccsc1)C1CCCCC1 (stereo not shown) [Cetiedil]
PPB (fb) [3]: 0.74

CCCN(CC)C(CC)C(=O)Nc1c(C)cccc1C (stereo not shown) [etidocaine]
PPB (fb) [1]: 0.94

COc1cccc2c1C(=O)c1c(O)c3c(c(O)c1C2=O)C[C@@](O)(C(=O)CO)C[C@@H]3O[C@H]1C[C@H](N)[C@@H](O)[C@H](C)O1 [Epirubicin]
PPB (fb) [2]: 0.75

CC(C)(C)NC[C@H](O)COc1ccccc1C1CCCC1 [penbutolol]
PPB (fb) [1]: 0.95

CC(=O)[C@H]1CC[C@H]2[C@@H]3CCC4=CC(=O)CC[C@]4(C)[C@H]3CC[C@]12C [progesterone]
PPB (fb) [3]: 0.97

COc1cc(CC2c3c(cc(OC)c(OC)c3OC)CC[N+]2(C)CCCOC(=O)CCC(=O)OCCC[N+]2(C)CCc3cc(OC)c(OC)c(OC)c3C2Cc2cc(OC)c(OC)c(OC)c2)cc(OC)c1OC (stereo not shown) [Doxacurium]
PPB (fb) (plasma): 0.39

O=C1NC(=O)C(c2ccccc2)(c2ccccc2)N1 [phenytoin]
PPB (fb) [1]: 0.91

Cc1cccc(C)c1NC(=O)NCCCNC(C)C [Recainam]
PPB (fb) [2]: 0.14

CCCN(CCC)CCc1cccc2c1CC(=O)N2 [ropinirole]
PPB (fb) (plasma): 0.4

CNC[C@H](O)c1ccc(O)c(O)c1 [epinephrine]
PPB (fb) [1]: 0.5

O=C(NCC1CCCCN1)c1cc(OCC(F)(F)F)ccc1OCC(F)(F)F (stereo not shown) [Flecainide]
PPB (fb) [3]: 0.5

CC(Oc1ccccc1)C(=O)NC1C(=O)N2C1SC(C)(C)C2C(=O)O (stereo not shown) [penicillin48]
PPB (fb) [1]: 0.82

CCC1(c2ccccc2)C(=O)NCNC1=O [primidone]
PPB (fb) [1]: 0.2

O=[N+]([O-])O[C@H]1CO[C@H]2[C@@H]1OC[C@H]2O[N+](=O)[O-] [Isosorbide Dinitrate]
PPB (fb) (plasma): 0.29

CCN1CCN(C(=O)N[C@@H](C(=O)N[C@@H]2C(=O)N3[C@@H]2SC(C)(C)[C@@H]3C(=O)O)c2ccccc2)C(=O)C1=O [Piperacillin]
PPB (fb) (plasma): 0.4

C[C@]12CCC(=O)C=C1[C@@H]1C[C@@H]1[C@H]1[C@@H]3[C@@H]4C[C@@H]4[C@@]4(CCC(=O)O4)[C@@]3(C)CC[C@@H]12 [drospirenone]
PPB (fb) [1]: 0.97

Nc1ccc(O)c(C(=O)O)c1 [Aminosalicylic acid__ 5-]
PPB (fb) [2]: 0.61

C#CCCCC(=O)c1cc(C(C)(C)C)c(O)c(C(C)(C)C)c1 [tebufelone]
PPB (fb) [1]: 0.99

CC1(C)SC2C(NC(=O)COc3cccc(F)c3)C(=O)N2C1C(=O)O (stereo not shown) [penicillin53]
PPB (fb) [1]: 0.83

Clc1ccc2c(c1)C(N1CCNCC1)=Nc1ccccc1O2 [amoxapine]
PPB (fb) [3]: 0.9

CC(C)(C)NCC(O)COc1cccc2c1CCC(=O)N2 (stereo not shown) [carteolol]
PPB (fb) [3]: 0.15

CN(C)C(=O)Oc1cc(OC(=O)N(C)C)cc(C(O)CNC(C)(C)C)c1 (stereo not shown) [bambuterol]
PPB (fb) [3]: 0.45

COCC(=O)O[C@]1(CCN(C)CCCc2nc3ccccc3[nH]2)CCc2cc(F)ccc2[C@@H]1C(C)C [Mibefradil]
PPB (fb) [3]: 0.99

CC(c1cc2ccccc2s1)N(O)C(N)=O (stereo not shown) [zileuton]
PPB (fb) [3]: 0.93

COC(C(=O)NC1C(=O)N2C1SC(C)(C)C2C(=O)O)c1cccc([N+](=O)[O-])c1 (stereo not shown) [penicillin46]
PPB (fb) [1]: 0.6

Oxytetracycline
PPB (fb) (plasma): 0.2

CC1(C)S[C@@H]2[C@H](NC(=O)COc3ccccc3)C(=O)N2[C@H]1C(=O)O [Phenoxymethylpenicillin]
PPB (fb) [3]: 0.67

Brotizolam
PPB (fb) (plasma): 0.9

O=C1OC(c2ccc(O)c(S(=O)(=O)O)c2)(c2ccc(O)c(S(=O)(=O)O)c2)c2c(Br)c(Br)c(Br)c(Br)c21 [sulfobromophthalein]
PPB (fb) (plasma): 0.99

CCN1CCCC1CNC(=O)c1cc(S(N)(=O)=O)ccc1OC (stereo not shown) [sulpiride]
PPB (fb) [3]: 0.25

CCCC(=O)Nc1ccc(OCC(O)CNC(C)C)c(C(C)=O)c1 (stereo not shown) [Acebutolol]
PPB (fb) [2]: 0.24

C#C[C@]1(O)CC[C@H]2[C@@H]3CCc4cc(O)ccc4[C@H]3CC[C@@]21C [Ethinylestradiol]
PPB (fb) [2]: 0.97

C[C@@H](CN1CC(=O)NC(=O)C1)N1CC(=O)NC(=O)C1 [Dexrazoxane]
PPB (fb) [2]: 0.01

O=P(O)(O)C(Sc1ccc(Cl)cc1)P(=O)(O)O [tiludronic acid]
PPB (fb) [1]: 0.9

NC[C@H](O)c1ccc(O)c(O)c1 [norepinephrine]
PPB (fb) [1]: 0.5

C/C=C/C[C@@H](C)C(=O)[C@H]1C(=O)N[C@@H](C(C)C)C(=O)N(C)CC(=O)N(C)[C@@H](CC(C)C)C(=O)N[C@@H](C(C)C)C(=O)N(C)[C@@H](CC(C)C)C(=O)N[C@@H](C)C(=O)N[C@H](C)C(=O)N(C)[C@@H](CC(C)C)C(=O)N(C)[C@@H](CC(C)C)C(=O)N(C)[C@@H](C(C)C)C(=O)N1C [Valspodar]
PPB (fb) [1]: 0.98

CC(=O)OCC(=O)[C@@]12N=C(C)O[C@@H]1C[C@H]1[C@@H]3CCC4=CC(=O)C=C[C@]4(C)[C@H]3[C@@H](O)C[C@@]12C [deflazacort]
PPB (fb) [3]: 0.4

Tetracycline
PPB (fb) (plasma): 0.36

CCOC(=O)/C=C(C)/C=C/C=C(C)/C=C/c1c(C)cc(OC)c(C)c1C [etretinate]
PPB (fb) [3]: 0.99

CCCCCN(CCCOC)C(=O)[C@@H](CCC(=O)O)NC(=O)c1ccc(Cl)c(Cl)c1 [Dexloxiglumide]
PPB (fb) [2]: 0.98

O=P1(NCCCl)OCCCN1CCCl (stereo not shown) [Ifosfamide]
PPB (fb) (plasma): 0

COc1ccc2c(C(=S)N(C)CC(=O)O)cccc2c1C(F)(F)F [tolrestat]
PPB (fb) [2]: 0.99

O=C(NCCO[N+](=O)[O-])c1cccnc1 [nicorandil]
PPB (fb) [1]: 0.25

Cn1c(=O)c2c(ncn2CCCNCC(O)c2cc(O)cc(O)c2)n(C)c1=O (stereo not shown) [reproterol]
PPB (fb) [3]: 0.5

CCC(C)C1OC2(CCC1C)CC1CC(C/C=C(\C)C(OC3CC(OC)C(OC4CC(OC)C(O)C(C)O4)C(C)O3)C(C)/C=C/C=C3\COC4C(O)C(C)=CC(C(=O)O1)C34O)O2 (stereo not shown) [ivermectin]
PPB (fb) (plasma): 0.93

C[C@]12CCC(=O)C(O)=C1CC[C@@H]1[C@@H]2CC[C@]2(C)C(=O)CC[C@@H]12 [formestane]
PPB (fb) (plasma): 0.84

O=C(O)CCNC(=O)c1ccc(/N=N/c2ccc(O)c(C(=O)O)c2)cc1 [balsalazide]
PPB (fb) [3]: 0.99

CN(C)CC(c1ccc(O)cc1)C1(O)CCCCC1 (stereo not shown) [O-desmethylvenlafaxine]
PPB (fb) [1]: 0.3

C[C@@H]1[C@H](O)[C@@H](C)/C=C/C=C/C=C/C=C/C=C/C=C/C=C/[C@H](O[C@@H]2O[C@H](C)[C@@H](O)[C@H](N)[C@@H]2O)C[C@@H]2O[C@](O)(C[C@@H](O)C[C@@H](O)[C@H](O)CC[C@@H](O)C[C@@H](O)CC(=O)O[C@H]1C)C[C@H](O)[C@H]2C(=O)O [amphotericin-B]
PPB (fb) [3]: 0.94

Nc1ccc(O)c(C(=O)O)c1 [mesalamine]
PPB (fb) [1]: 0.45
